Where two headings read alike, the source gives them in different places.
How the values were obtained:
[1] = molecular target: T1, GABAA receptor subtype (α1β2γ2S) (Homo sapiens, UniProt P14867+P18507+P47870); experiment: Two-microelectrode voltage-clamp in Xenopus laevis oocytes; settings: for activation at 10 µM: read-out: IGABA Potentiation of 10 µM (%); for activation at 100 µM: read-out: IGABA Potentiation of 100 µM (%)
Description: All molecules were tested at concentrations of 10, 100 μM and compared with dehydroabietic acid (DHA) (3) as a reference [16].

[2] = test system: L. infantum promastigotes; parameters: method as in PMID 30840453; settings: C18-congeners, read-out: L. infantum IC50 ± SD; cited from earlier work
[3] = test system: L. donovani promastigotes; settings: C18-congeners, read-out: L. donovani IC50 ± SD; cited from earlier work
[4] = test system: L. amazonensis promastigotes; parameters: method as in PMID 30840453; settings: C18-congeners, read-out: L. amazonensis IC50 ± SD; cited from earlier work
[5] = test system: L. guyanensis promastigotes; parameters: method as in PMID 30840453; settings: C18-congeners, cited from earlier work; for IC50: read-out: L. guyanensis IC50 ± SD
A549 (Lung) [6] = settings: cited from earlier work
HBL-100 (Breast) [7] = settings: cited from earlier work
HeLa (Cervix) [8] = settings: cited from earlier work
SW1573 (Lung) [9] = settings: cited from earlier work
T-47D (Breast) [10] = settings: cited from earlier work
WiDr (Colon) [11] = settings: cited from earlier work
Macrophages J774 = settings: cited from earlier work
[12] = molecular target: T1, GABAA receptor subtype (α1β2γ2S); parameters: expressed in transfected cells; host or cells: Xenopus laevis oocytes; settings: cited from earlier work
P. falciparum 3D7 strain = experiment: Antiplasmodial DNA stain-based growth assay; assay type: cell-based; settings: Plasmodium falciparum, read-out: P. falciparum 3D7 EC50
Description: (§1) Assays were performed by using previously described DNA stain-based assay and methods, including cytotoxicity assays.

P. falciparum K1 strain = experiment: Antiplasmodial DNA stain-based growth assay; assay type: cell-based; settings: Plasmodium falciparum, read-out: P. falciparum K1 EC50
Description: as §1

BJ = experiment: Cytotoxicity on mammalian cell lines; assay type: cell-based; settings: Homo sapiens, read-out: BJ EC50
Description: as §1

HEK293 = experiment: Cytotoxicity on mammalian cell lines; assay type: cell-based
Description: as §1

HepG2 = experiment: Cytotoxicity on mammalian cell lines; assay type: cell-based
Description: as §1

RAJI = experiment: Cytotoxicity on mammalian cell lines; assay type: cell-based; settings: Homo sapiens, read-out: RAJI EC50
Description: as §1

A549 (Lung) [13] = experiment: Antiproliferative SRB assay; assay type: cell-based, human
Description: (§2) Cells, cultures and the activity test of abietane analogs followed reported methods. The SRB assay was performed as previously described, and the antiproliferative activity was given as GI50 values, which were calculated according to NCI formulas.

SW1573 (Lung) [14] = experiment: Antiproliferative SRB assay; assay type: cell-based, human
Description: as §2

WiDr (Colon) [15] = experiment: Antiproliferative SRB assay; assay type: cell-based, human; settings: mean ± SD of at least two experiments
Description: as §2

HBL-100 (Breast) [16] = experiment: Antiproliferative SRB assay; assay type: cell-based; settings: Homo sapiens, mean ± SD of at least two experiments
Description: as §2

HeLa (Cervix) [17] = experiment: Antiproliferative SRB assay; assay type: cell-based; settings: Homo sapiens, mean ± SD of at least two experiments
Description: as §2

T-47D (Breast) [18] = experiment: Antiproliferative SRB assay; assay type: cell-based; settings: Homo sapiens, T47D, mean ± SD of at least two experiments
Description: as §2

in vitro = settings: mouse, Macrophages J774 CC50
Description: (§3) The compounds were additionally studied in a panel of mammalian cell lines to determine cytotoxicity.
(§4) The parasites, culture procedure and the activity of functionalized abietane analogs on Leishmania promastigotes were performed according to the method previously reported by us [28], while the intracellular amastigote assay was performed on L. amazonensis and L. infantum according to the fluorometric test [29]. The J774 cell culture and the cytotoxicity assay was carried out according to our previously described method [30].

L. infantum amastigotes = experiment: Intracellular amastigote assay (fluorometric test); assay type: cell-based; settings: Leishmania infantum, read-out: L. infantum IC50 ± SD
[19] = test system: L. amazonensis amastigotes; experiment: Intracellular amastigote assay (fluorometric test); assay type: cell-based; settings: Leishmania amazonensis, read-out: L. amazonensis IC50 ± SD
[20] = test system: L. infantum promastigotes; experiment: Antileishmanial in vitro promastigote assay; settings: Leishmania infantum, read-out: L. infantum IC50 ± SD
Description: as §3, §4

[21] = test system: L. donovani promastigotes; experiment: Antileishmanial in vitro promastigote assay; settings: Leishmania donovani, read-out: L. donovani IC50 ± SD
Description: as §3, §4

[22] = test system: L. amazonensis promastigotes; experiment: Antileishmanial in vitro promastigote assay; settings: Leishmania amazonensis, read-out: L. amazonensis IC50 ± SD
Description: as §3, §4

[23] = test system: L. guyanensis promastigotes; experiment: Antileishmanial in vitro promastigote assay; settings: Leishmania guyanensis, read-out: L. guyanensis IC50 ± SD
Description: as §3, §4

[24] = read-out: Macrophages J774 CC50, C18-congeners
[25] = mean ± SD of at least two experiments
[26] = Homo sapiens, HEK293; read-out: HEK293 EC50
[27] = Homo sapiens, HepG2; read-out: HepG2 EC50
[28] = Homo sapiens, A549, mean ± SD of at least two experiments
[29] = Homo sapiens, SW1573, mean ± SD of at least two experiments

T1 sequence (P14867 28-456): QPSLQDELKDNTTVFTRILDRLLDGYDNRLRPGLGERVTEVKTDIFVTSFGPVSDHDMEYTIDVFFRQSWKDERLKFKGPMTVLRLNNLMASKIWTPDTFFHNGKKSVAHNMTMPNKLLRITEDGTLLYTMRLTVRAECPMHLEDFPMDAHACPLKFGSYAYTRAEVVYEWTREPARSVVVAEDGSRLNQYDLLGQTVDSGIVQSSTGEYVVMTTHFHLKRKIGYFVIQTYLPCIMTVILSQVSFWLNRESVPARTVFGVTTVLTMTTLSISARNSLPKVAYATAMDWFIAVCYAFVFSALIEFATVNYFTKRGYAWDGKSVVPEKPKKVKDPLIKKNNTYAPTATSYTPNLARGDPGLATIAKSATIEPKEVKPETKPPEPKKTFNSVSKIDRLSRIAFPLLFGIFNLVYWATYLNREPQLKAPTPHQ
T1 sequence (P47870 26-512): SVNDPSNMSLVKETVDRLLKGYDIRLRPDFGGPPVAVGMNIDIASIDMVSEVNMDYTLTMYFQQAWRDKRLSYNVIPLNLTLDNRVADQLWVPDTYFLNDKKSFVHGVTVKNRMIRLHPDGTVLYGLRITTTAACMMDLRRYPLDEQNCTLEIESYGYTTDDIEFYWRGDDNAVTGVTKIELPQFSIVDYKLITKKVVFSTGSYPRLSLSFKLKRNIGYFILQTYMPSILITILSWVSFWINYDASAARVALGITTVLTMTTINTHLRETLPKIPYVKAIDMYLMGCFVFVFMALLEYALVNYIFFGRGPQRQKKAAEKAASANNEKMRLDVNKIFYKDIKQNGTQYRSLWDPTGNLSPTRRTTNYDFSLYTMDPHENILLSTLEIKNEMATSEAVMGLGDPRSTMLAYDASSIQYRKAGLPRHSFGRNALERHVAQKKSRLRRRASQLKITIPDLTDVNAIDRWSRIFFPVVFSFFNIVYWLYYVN
T1 sequence (P18507 40-467 isoform P18507-1 limits assumed): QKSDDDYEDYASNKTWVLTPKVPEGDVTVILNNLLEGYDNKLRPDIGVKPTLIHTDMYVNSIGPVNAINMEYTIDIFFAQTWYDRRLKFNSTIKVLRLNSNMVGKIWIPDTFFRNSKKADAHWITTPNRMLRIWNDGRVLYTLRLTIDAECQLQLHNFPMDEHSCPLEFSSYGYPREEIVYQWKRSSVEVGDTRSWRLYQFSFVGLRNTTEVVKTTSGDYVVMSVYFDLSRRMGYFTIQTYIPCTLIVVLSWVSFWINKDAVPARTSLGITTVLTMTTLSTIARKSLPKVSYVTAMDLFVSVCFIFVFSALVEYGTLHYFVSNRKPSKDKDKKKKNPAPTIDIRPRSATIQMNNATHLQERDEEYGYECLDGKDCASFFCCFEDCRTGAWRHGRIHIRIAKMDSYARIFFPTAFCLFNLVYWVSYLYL

SMILES	IC50 [2] [µM]	IC50 [3] [µM]	IC50 [4] [µM]	IC50 [5] [µM]	GI50 (A549 (Lung) [6]; C18-congeners) [µM]	GI50 (HBL-100 (Breast) [7]; C18-congeners) [µM]	GI50 (HeLa (Cervix) [8]; C18-congeners) [µM]	GI50 (SW1573 (Lung) [9]; C18-congeners) [µM]	GI50 (T-47D (Breast) [10]; C18-congeners) [µM]	GI50 (WiDr (Colon) [11]; C18-congeners) [µM]	CC50 (Macrophages J774; [24]) [µM]	IGABA Potentiation of 10 µM (%) ([12]; C18-congeners)	IGABA Potentiation of 100 µM (%) ([12]; C18-congeners)	other results
CC(C)c1ccc2c(c1)CC[C@H]1[C@](C)(C(=O)O)CCC[C@]21C [Compound 3, dehydroabietic acid, reference compound]	–	–	–	–	–	–	–	–	–	–	–	–	–	activation at 10 µM [1]: 192 ± 10%; activation at 100 µM [1]: 789 ± 82%
CC(C)c1cc2c(cc1O)[C@@]1(C)CCC[C@@](C)(CO)[C@@H]1CC2 [Compound 14b]	0.7 ± 0.1	13.9 ± 0.1	7.7 ± 0.8	12.5 ± 2.2	12 ± 1.9	16 ± 2	12 ± 1.8	15 ± 2.8	16 ± 0.9	17 ± 1.3	23.4 ± 4.6	29.3 ± 10.6	154.1 ± 34.2	–
COC(=O)[C@]1(C)CCC[C@]2(C)c3cc(OC(C)=O)c(C(C)C)cc3CC[C@@H]12 [Compound 10b]	1.3 ± 0.1	8.1 ± 0.7	3.2 ± 0.3	5.5 ± 0.7	11 ± 1.8	15 ± 3.9	4.4 ± 1.1	12 ± 3.2	14 ± 2.9	16 ± 2.5	26.5 ± 2.7	5.1 ± 2.1	26.3 ± 8.9	–
CCN(CC)CCCC(C)Nc1ccnc2cc(Cl)ccc12 (stereo not drawn) [Chloroquine, reference compound]	–	–	–	–	–	–	–	–	–	–	–	–	–	EC50 (P. falciparum 3D7 strain; 3D7, 72 h): 23 nM; EC50 (P. falciparum K1 strain; K1, 72 h): 0.69 µM; EC50 (BJ): > 25 µM; EC50 (HEK293; Homo sapiens, HEK293, read-out: HEK293 EC50): > 25 µM; EC50 (HepG2; Homo sapiens, HepG2, read-out: HepG2 EC50): > 25 µM; EC50 (RAJI): > 25 µM
COC(=O)[C@]1(C)CCC[C@]2(C)c3cc(O)c(C(C)C)cc3CC[C@@H]12 [Compound 12b]	5 ± 0.3	9.21 ± 0.06	3.9 ± 0.1	5.9 ± 1.1	9.4 ± 2.6	9.7 ± 2.7	5.8 ± 0.5	11 ± 2	19 ± 3.8	23 ± 4.4	34.2 ± 3.1	23.7 ± 9.6	378.0 ± 65.6	–
CC(C)c1cc2c(cc1O)C1(C)CCCC(C)(C(=O)O)C1CC2=O (single isomer, unassigned; (+)) [Compound 8b, (+)-liquiditerpenoic acid A]	–	–	–	–	> 100	> 100	85 ± 21	> 100	> 100	> 100	–	−2.2 ± 4.4	−21.1 ± 7.1	L. guyanensis IC50 ± SD [5]: inactive; CC50 (Macrophages J774): 219 ± 15 µM
CC(C)c1cc2c(cc1O)[C@@]1(C)CCC[C@@](C)(CO)[C@@H]1CC2=O [Compound 15b]	9.7 ± 0.8	19.7 ± 0.4	10.2 ± 0.6	16.5 ± 0.7	19 ± 3.3	16 ± 2	16 ± 2.4	23 ± 0.7	20 ± 2.7	19 ± 2.1	14.4 ± 2.8	4.5 ± 5.8	−30.3 ± 9.5	–
COC(=O)[C@]1(C)CCC[C@]2(C)c3cc(OC(C)=O)c(C(C)C)cc3C(=O)C[C@@H]12 [Compound 11b]	0.7 ± 0.2	4.4 ± 0.5	0.65 ± 0.03	1.3 ± 0.1	14 ± 0.4	16 ± 1.5	13 ± 2.3	17 ± 1.9	20 ± 2.9	19 ± 1.7	17.8 ± 2.8	−1.0 ± 2.8	46.7 ± 8.3	–
N.N.[Cl][Pt][Cl] [cisplatin, reference compound]	–	–	–	–	–	–	–	–	–	–	–	–	–	GI50 (A549 (Lung) [13]; [25]): 4.9 ± 0.2 µM; GI50 (SW1573 (Lung) [14]; [25]): 2.7 ± 0.4 µM; GI50 (WiDr (Colon) [15]): 23 ± 4.3 µM
CC(C)=CCC[C@]1(C)C=Cc2c(O)c3c(c(CC=C(C)C)c2O1)O[C@]12C(=C[C@@H]4C[C@H]1C(C)(C)O[C@@]2(C/C=C(/C)C(=O)O)C4=O)C3=O [Gambogic acid, reference compound]	–	–	–	–	–	–	–	–	–	–	–	–	–	EC50 (BJ): 0.21 µM; EC50 (HEK293; [26]): 0.21 µM; EC50 (HepG2; [27]): > 25 µM; EC50 (RAJI): 0.24 µM
COc1cc([C@@H]2c3cc4c(cc3[C@@H](O[C@@H]3O[C@@H]5CO[C@@H](C)O[C@H]5[C@H](O)[C@H]3O)[C@H]3COC(=O)[C@H]23)OCO4)cc(OC)c1O [etoposide, reference compound]	–	–	–	–	–	–	–	–	–	–	–	–	–	GI50 (A549 (Lung) [13]; [28]): 1.5 ± 0.3 µM; GI50 (SW1573 (Lung) [14]; [29]): 15 ± 1.5 µM; GI50 (WiDr (Colon) [15]; Homo sapiens, WiDr): 23 ± 3.1 µM; GI50 (HBL-100 (Breast) [16]): 1.4 ± 0.1 µM; GI50 (HeLa (Cervix) [17]): 3.3 ± 1.6 µM; GI50 (T-47D (Breast) [18]): 22 ± 5.5 µM
COC(=O)[C@]1(C)CCC[C@]2(C)c3cc(O)c(C(C)C)cc3C(=O)C[C@@H]12 [Compound 16b]	–	–	–	–	> 100	> 100	> 100	> 100	> 100	> 100	154 ± 49.3	37.4 ± 12.7	242.4 ± 46.0	–
CC(C)c1cc2c(cc1O)[C@@]1(C)CCCC(C)(C)[C@@H]1CC2=O [Compound 2, sugiol]	–	–	–	–	–	–	–	–	–	–	–	–	–	GI50 (A549 (Lung) [6]): 79.8 ± 2.2 µM
CC(C)c1cc2c(cc1O)[C@@]1(C)CCC[C@](C)(CO)[C@@H]1CC2=O [Compound 15, 19-hydroxysugiol]	–	–	–	–	–	–	–	–	–	–	–	–	–	EC50 (P. falciparum 3D7 strain; 3D7, chloroquine-sensitive strain, 72 h incubation): > 15000 nM; EC50 (P. falciparum K1 strain; K1, chloroquine-resistant strain, 72 h incubation): 9.4 µM; EC50 (BJ): > 25 µM; EC50 (HEK293; [26]): > 25 µM; EC50 (HepG2; [27]): > 25 µM; EC50 (RAJI): > 25 µM; GI50 (A549 (Lung) [13]; [28]): 10 ± 0.3 µM; GI50 (SW1573 (Lung) [14]; [29]): 19 ± 3.3 µM; GI50 (WiDr (Colon) [15]; Homo sapiens, WiDr): 17 ± 5 µM; GI50 (HBL-100 (Breast) [16]): 17 ± 1.7 µM; GI50 (HeLa (Cervix) [17]): 15 ± 1.1 µM; GI50 (T-47D (Breast) [18]): 19 ± 1.1 µM; CC50 (in vitro): 50.1 ± 2.4 µM; IGABA Potentiation of 100 µM (%) ([1]; 100 µM, α1β2γ2S receptors): 238 ± 28%; activation at 10 µM [1]: 30 ± 14%; activation at 100 µM [1]: 238%
COC(=O)[C@@]1(C)CCC[C@]2(C)c3ccc(C(C)C)cc3CC[C@@H]12 [Compound 7, methyl callitrisate]	–	–	–	–	–	–	–	–	–	–	–	–	–	GI50 (A549 (Lung) [6]): 10 ± 1.9 µM; GI50 (HBL-100 (Breast) [7]): 14 ± 5 µM; GI50 (HeLa (Cervix) [8]): 16 ± 2.5 µM; GI50 (SW1573 (Lung) [9]): 17 ± 2.2 µM; GI50 (T-47D (Breast) [10]): 8.8 ± 2.7 µM; GI50 (WiDr (Colon) [11]): 6.4 ± 2.1 µM
CC(C)c1cc2c(cc1O)[C@@]1(C)CCC[C@@](C)(C(=O)O)C1CC2 (stereo partly drawn) [Compound 13b, 12-hydroxydehydroabietic acid]	43.6 ± 3.4	58.1 ± 0.7	54.1 ± 6.5	71.4 ± 1.5	70 ± 6.3	> 100	96 ± 5.5	93 ± 9.3	> 100	> 100	85.8 ± 28.8	8.9 ± 2.3	12.1 ± 2.9	–
CCCCCCCCCCCCCCCCOP(=O)([O-])OCC[N+](C)(C)C [Miltefosine, reference compound]	–	–	–	–	–	–	–	–	–	–	–	–	–	IC50 (L. infantum amastigotes): 58.1 ± 4.4 µM; IC50 [19]: 16.5 ± 1.9 µM; CC50 (in vitro): 136 ± 1.4 µM; IC50 [20]: 3.4 ± 0.6 µM; IC50 [21]: 150 ± 20 nM; IC50 [22]: 47.7 ± 5 µM; IC50 [23]: 18.2 ± 0.6 µM
CC(C)c1ccc2c(c1)CC[C@H]1[C@@](C)(C(=O)O)CCC[C@]21C [Compound 6, callitrisic acid]	–	–	–	–	–	–	–	–	–	–	–	–	–	IGABA Potentiation of 10 µM (%) [12]: 14 ± 5%; IGABA Potentiation of 100 µM (%) [12]: 269 ± 24%

From article PMC7918733, “Biological Profiling of Semisynthetic C19-Functionalized Ferruginol and Sugiol Analogues” (Antibiotics, 2021)
